# Measurements: the Deep4Chem optical property database
# Assay: solvent given as SMILES
compound,measurement,setting,value
CC(C)(C)c1cc2ccc3cc(C(C)(C)C)cc4c3c2c(c1)c(=O)n1c4nc2c3cc(C(C)(C)C)cc4ccc5cc(C(C)(C)C)cc(c5c43)c21,absorption maximum,in C1CCOC1,395 nm
same,absorption maximum,in CC#N,394 nm
same,absorption maximum,in CC(C)=O,395 nm
same,absorption maximum,in CCCCCC,399 nm
same,absorption maximum,in CCO,395 nm
same,absorption maximum,in CCOC(C)=O,393 nm
same,absorption maximum,in CO,382 nm
same,absorption maximum,in CS(C)=O,394 nm
same,absorption maximum,in Cc1ccc(C)cc1,396 nm
same,absorption maximum,in ClC(Cl)(Cl)Cl,401 nm
same,absorption maximum,in ClC(Cl)Cl,401 nm
same,absorption maximum,in c1ccccc1,395 nm
c1ccc(-c2ccccc2)cc1,absorption maximum,in C1CCCCC1,254.13 nm
same,absorption maximum,in C1COCCO1,246 nm
CN(C)c1ccc(C2=Cc3cc(Cl)nc[n+]3[B-](F)(F)O2)cc1,absorption maximum,in C1CCOC1,451 nm
same,absorption maximum,in CC#N,452 nm
same,absorption maximum,in CCCCCC,444 nm
same,absorption maximum,in Cc1ccccc1,453 nm
same,absorption maximum,in ClC(Cl)Cl,460 nm
same,absorption maximum,in ClCCl,459 nm
CCCCCCOc1cc(/C=C/c2cc(OCCCCCC)c(/C=C/c3cc(OCCCCCC)c(C=C4C(=O)c5ccccc5C4=O)cc3OCCCCCC)cc2OCCCCCC)c(OCCCCCC)cc1C=C1C(=O)c2ccccc2C1=O,absorption maximum,in ClCCl,550 nm
CC[n+]1nc2ccc(N(C)C)cc2c2cc(C)ccc21,absorption maximum,in O,483 nm
CC[n+]1nc2cc3c4c(c2c2ccccc21)CCCN4CCC3,absorption maximum,in O,493 nm
O=Cc1ccc(C#CC(C#Cc2ccc(C=O)s2)=Cc2ccc(C=C(C#Cc3ccc(C=O)s3)C#Cc3ccc(C=O)s3)s2)s1,absorption maximum,in ClC(Cl)Cl,524 nm
CC[N+]1(CC)CN2C(=N1)C(C(=O)O)=Cc1cc(C)c(C)cc12,absorption maximum,in O,378 nm
CCN1CCN(c2ccc(/N=N/c3cc(C(=O)OC)cc(C(=O)OC)c3)cc2)CC1,absorption maximum,in CCOC(C)=O,416 nm
O=C1/C(=C2\Sc3ccc(S(=O)(=O)O)cc3C2=O)Sc2ccc(S(=O)(=O)O)cc21,absorption maximum,in C1COCCO1,530 nm
same,absorption maximum,in CN(C)C=O,551 nm
same,absorption maximum,in CO,553 nm
same,absorption maximum,in CS(C)=O,553 nm
same,absorption maximum,in O,546 nm
CCC1=C(C)C2=C(c3c(C)cc(C)nc3-c3cccs3)c3c(C)c(CC)c(C)n3[B-](F)(F)[N+]2=C1C,absorption maximum,in C1CCCCC1,532 nm
same,absorption maximum,in C1CCOC1,532 nm
same,absorption maximum,in C1COCCO1,533 nm
same,absorption maximum,in CC#N,530 nm
same,absorption maximum,in CCCCCC,531 nm
same,absorption maximum,in CCO,531 nm
same,absorption maximum,in CCOC(C)=O,531 nm
same,absorption maximum,in CCOCC,530 nm
same,absorption maximum,in CN(C)C=O,532 nm
same,absorption maximum,in CS(C)=O,534 nm
same,absorption maximum,in Cc1ccccc1,533 nm
same,absorption maximum,in ClC(Cl)(Cl)Cl,534 nm
same,absorption maximum,in ClC(Cl)Cl,535 nm
CN(C)c1ccc(C2=Cc3ccccc3P2(=O)c2ccccc2)cc1 (configuration not stated),absorption maximum,in ClCCl,413 nm
CC(C)(C)N1C(=O)c2c(cc3ccc4cccc5ccc2c3c45)C1O (configuration not stated),absorption maximum,in ClC(Cl)Cl,385 nm
COc1ccc(C2=C3C(C)=CC(C)=[N+]3[B-](F)(F)n3c(C)cc(C)c32)cc1,absorption maximum,in Cc1ccccc1,504 nm
O=c1oc2ccccc2cc1/C=C/c1ccc([N+](=O)[O-])cc1,absorption maximum,in CC#N,371 nm
CN(C)c1ccc(/C=C/c2nc3ccccc3o2)cc1,absorption maximum,in C1CCCCC1,380 nm
same,absorption maximum,in CO,390 nm
CC[N+](CC)=c1ccc2c(-c3ccccc3C(=O)O)c3c(=O)oc4c5c6c(cc4c3oc-2c1)CCCN6CCC5,absorption maximum,in CCO,612 nm
same,absorption maximum,in ClC(Cl)Cl,623 nm
same,absorption maximum,in O,612 nm
CCCCCCC(CCCCCC)N1C(=O)c2cccc3c(-c4ccc(N(C)C)cc4)ccc(c23)C1=O,absorption maximum,in CCCCCC,401.2 nm
same,absorption maximum,in CCCCCCCCCCCCCC,403.8 nm
same,absorption maximum,in CCCCCCCCCCCO,428.6 nm
same,absorption maximum,in CCCCO,430.2 nm
same,absorption maximum,in CN(C)C=O,433.8 nm
same,absorption maximum,in Cc1ccccc1,418.2 nm
same,absorption maximum,in ClC(Cl)Cl,426.2 nm
O=P1(c2ccccc2)C(c2ccsc2)=C(c2ccsc2)c2ccccc21 (configuration not stated),absorption maximum,in C1CCOC1,355 nm
C#Cc1ccc(C#Cc2cnc(C#Cc3ccccc3)nc2)cc1,absorption maximum,in C1CCCCC1,325 nm
Cc1nc2cccc(-c3nc4ccccc4o3)c2c(=O)[nH]1,absorption maximum,in CN(C)C=O,310 nm
F[B-]1(F)Oc2ccccc2-c2c3c(c4c([n+]21)CCc1ccccc1-4)CCc1ccccc1-3,absorption maximum,in ClCCl,347 nm
COc1ccc(C#Cc2c(C#Cc3ccc(OC)cc3)c(C#Cc3ccc(OC)cc3)c(C#Cc3ccc(OC)cc3)c(C#Cc3ccc(OC)cc3)c2C#Cc2ccc(OC)cc2)cc1,absorption maximum,in ClCCl,386 nm
Cc1nc(-c2cc(C(F)(F)F)ccc2O)n2c1CCCC2,absorption maximum,in ClCCl,316 nm
CCn1c(-c2ccc(N(c3ccccc3)c3cccc4ccccc34)cc2)c(-c2ccc3ccccc3c2)c(-c2ccc3ccccc3c2)c1-c1ccc(N(c2ccccc2)c2cccc3ccccc23)cc1,absorption maximum,in CCOC(C)=O,296 nm
CN(C)c1ccc(-c2nc3nccnc3n2-c2ccccc2)cc1,absorption maximum,in CC#N,371 nm
Cc1ccc(/C2=c3\cc/c(o3)=C(\c3ccc(C)cc3)c3ccc([nH]3)-c3ccc4n3[P-](=O)(=O)[N+]3=C(C=CC3=C4c3ccco3)c3ccc2[nH]3)cc1,absorption maximum,in ClC(Cl)Cl,744 nm
CS1(C)C(/C=C/C2=C(c3ccc(C(=O)O)cc3)C(=C/C=C3/N(CCCCS(=O)(=O)[O-])c4ccccc4S3(C)C)/CCC2)=[N+](CCCCS(=O)(=O)[O-])c2ccccc21,absorption maximum,in CO,800 nm
COc1ccc(/C=C/C2=[O+][B-](F)(F)OC(/C=C/c3ccc(OC)c4ccccc34)=C2c2ccccc2)c2ccccc12,absorption maximum,in CC#N,550 nm
same,absorption maximum,in CC(C)=O,549 nm
same,absorption maximum,in CCOC(C)=O,542 nm
same,absorption maximum,in CCOCC,540 nm
same,absorption maximum,in ClC(Cl)(Cl)Cl,542 nm
same,absorption maximum,in ClCCl,556 nm
C1=CN2C[n+]3cccc(OCc4ccccc4)c3N=C2C(OCc2ccccc2)=C1,absorption maximum,in CO,450 nm
CC(C)C1=c2c(c3[nH]cc(C(C)C)c3c3ccccc23)=[N+]2C1=Cc1c(C(C)C)c3c4ccccc4c4c(C(C)C)c[nH]c4c3n1[B-]2(F)F,absorption maximum,in ClC(Cl)Cl,727 nm
CCCCC(CC)CN1C(=O)C2=C(c3ccc(-c4ccc(C5=C6C(C)=CC(C)=[N+]6[B-](F)(F)n6c(C)cc(C)c65)cc4)s3)N(CC(CC)CCCC)C(=O)C2=C1c1cccs1 (configuration not stated),absorption maximum,in Cc1ccccc1,580 nm
COc1cccc(-n2c(-c3ccc(O)cc3)nc(C)c2C)c1,absorption maximum,in CC#N,288 nm
same,absorption maximum,in CCO,292 nm
same,absorption maximum,in CO,287 nm
CC1=CC(C)=[N+]2C1=C(C)c1cccn1[B-]2(F)F,absorption maximum,in CCCCCC,492 nm
same,absorption maximum,in CO,486 nm
same,absorption maximum,in ClCCl,488 nm
CC(C)=CCN1C(=O)c2cccc3c2c(cc2oc(C)nc23)C1=O,absorption maximum,in CCO,362 nm
Cc1cccc(-c2c3ccccc3cc3ccccc23)n1,absorption maximum,in ClCCl,385 nm
COc1ccc(-c2cc(/C=C/c3ccc(N(c4ccccc4)c4ccccc4)cc3)c(C#N)c(N3CCCCC3)c2)cc1,absorption maximum,in CS(C)=O,398 nm
Cc1ccc(C)cc1,absorption maximum,in C1CCCCC1,262.88 nm
COc1cc2c(cc1-c1ccc([N+](=O)[O-])cc1)Cc1c3c(c4c(c1-2)-c1cc(OC)c(-c2ccc([N+](=O)[O-])cc2)cc1C4)C(=O)N(CCC(C)C)C3=O,absorption maximum,in C1CCOC1,409 nm
CCCCCCc1ccc(-n2c3[n+](c4c5ccccc5c5ccccc5c42)[B-](C)(C)c2cc(-n4c5ccccc5c5ccccc54)ccc2-3)cc1,absorption maximum,in C1CCOC1,370 nm
same,absorption maximum,in CC#N,369 nm
same,absorption maximum,in Cc1ccccc1,375 nm
same,absorption maximum,in ClCCl,372 nm
F[B-]1(F)n2c(-c3ccccc3)c3ccc4ccccc4c3c2N=C2c3c(ccc4ccccc34)C(c3ccccc3)=[N+]21,absorption maximum,in ClCCl,737 nm
CC1=C(c2ccccc2)C(C)=[N+]2C1=C(c1c(-c3ccccn3)nc3ccccn13)c1c(C)cc(C)n1[B-]2(F)F,absorption maximum,in ClCCl,532 nm
c1ccc2cc(-n3cnc4ccccc43)ccc2c1,absorption maximum,in C1CCCCC1,275 nm
same,absorption maximum,in C1CCOC1,277 nm
same,absorption maximum,in CC#N,278 nm
same,absorption maximum,in CCO,277 nm
same,absorption maximum,in CCOC(C)=O,278 nm
same,absorption maximum,in CCOCC,276 nm
same,absorption maximum,in CO,275 nm
same,absorption maximum,in Cc1ccccc1,275 nm
same,absorption maximum,in ClC(Cl)Cl,276 nm
F[B-]1(F)Oc2ccccc2-c2n(-c3ccc(C(F)(F)F)cc3)c(-c3ccccc3)c(-c3ccccc3)[n+]21,absorption maximum,in C1CCOC1,327 nm
O=Cc1cnc(-c2c3ccccc3cc3ccccc23)nc1,absorption maximum,in CCO,381 nm
same,absorption maximum,in ClCCl,384 nm
FC(F)(F)c1ccc(-c2c3cccc4c5cccc6c(-c7ccc(C(F)(F)F)cc7)c7cccc8c9cccc2c9c(c34)c(c65)c78)cc1,absorption maximum,in Cc1ccccc1,683 nm
C[N+]1=C(/C=C/C2=C3Oc4c(cc5c6c4CCCN6CCC5)C(c4ccccc4C(=O)O)=C3CCC2)C(C)(C)c2ccccc21,absorption maximum,in CC#N,724 nm
same,absorption maximum,in CCO,710 nm
same,absorption maximum,in CO,714 nm
same,absorption maximum,in ClC(Cl)Cl,730 nm
C1=Cc2ccc3ccccc3c2NB1c1ccccc1,absorption maximum,in C1CCCCC1,360 nm
Brc1ccc(/C=C/c2cnc3ccccc3n2)cc1,absorption maximum,in ClCCl,369 nm
N#Cc1ccc(-n2c(-c3ccc(-c4ccc(N(c5ccccc5)c5ccccc5)cc4)s3)nc3c4ccccc4c4ccccc4c32)c2ccccc12,absorption maximum,in ClCCl,308 nm
O=C(O)c1ccc(-c2nc(-c3ccccc3)c(-c3ccccc3)[nH]2)cc1,absorption maximum,in CO,312 nm
Nc1cc([NH3+])cc(-c2nc3ccccc3s2)c1,absorption maximum,in O,300 nm
CCCCN(CCCC)c1ccc(C#Cc2cc(C#Cc3ccc([N+](=O)[O-])cc3)c(C#Cc3ccc([N+](=O)[O-])cc3)cc2C#Cc2ccc(N(CCCC)CCCC)cc2)cc1,absorption maximum,in ClCCl,417 nm
CN(C)c1ccc2nc(-c3ccccc3)c(=O)oc2c1,absorption maximum,in c1ccccc1,436 nm
COc1cc2sc3nc(-c4ccccc4OC)sc3c2cc1OC,absorption maximum,in CS(C)=O,365 nm
COC(=O)C1=C(C(=O)OC)C2(c3ccccc3-c3c(Br)cc(Br)cc32)C2(/C=C/c3ccc(Cl)cc3)c3cc(OC)c(OC)cc3CCN12 (configuration not stated),absorption maximum,in ClCCl,328 nm
c1ccc(N(c2ccccc2)c2ccc(-c3ccc(-c4ccc(-c5ccc(-c6ccc(N(c7ccccc7)c7ccccc7)cc6)s5)c5nsnc45)s3)cc2)cc1,absorption maximum,in ClC(Cl)Cl,530 nm
N#Cc1ccc(/C=C/c2ccc(C=C(c3ccccc3)c3ccccc3)cc2)cc1,absorption maximum,in C1CCOC1,366 nm
CN(C)c1ccc(/C=C/c2nc3ccc(Br)cc3nc2-c2ccccc2)cc1,absorption maximum,in C1COCCO1,445 nm
same,absorption maximum,in CC#N,448 nm
same,absorption maximum,in ClCCl,453 nm
